According to publication PMC7698842, “Lanostane Triterpenoid Metabolites from a Penares sp. Marine Sponge Protect Neuro-2a Cells against Paraquat Neurotoxicity” (Molecules, 2020):

Assays:
[1] = test system: PQ-treated Neuro-2a cells; assay: Propidium iodide straining of PQ-treated Neuro-2a cells (membrane permeability); format: cell-based, mouse; settings: compound 10 μM pre-incubation, PQ-treated cells, 24 h
Protocol: The cells (1 × 10^4 cells/well) were seeded in black 96-well plates before testing. After incubation of the cells with compounds and PQ during 24 h, PI solution (10 μg/mL) was added to each well and the plate was incubated in the dark at 37 °C for 10 min. Cells were washed with phosphate buffer saline (PBS) (BioloT, St.Peterburg, Russia) and fluorescence was measured with a Fluoroskan Ascent plate reader (Thermo Labsystems, Helsinki, Finland) at […]. All manipulations with fluorescent probes were carried out in a darkened room. The results were presented as percent of positive control data.

[2] = test system: PQ-treated Neuro-2a cells; assay: PQ-treated Neuro-2a cell viability (FDA assay); format: cell-based, mouse; settings: compound 1 and 10 µM, PQ 500 µM, 24 h
Protocol: A stock solution of the fluorescein diacetate (FDA) (Sigma-Aldrich, St. Louis, MO, USA) in DMSO (1 mg/mL) was prepared. The cells (1 × 10^4 cells/well) were seeded in black 96-well plates before testing. After incubation of the cells with compounds and PQ during 24 h, FDA solution (50 μg/mL) was added to each well and the plate was incubated in the dark at 37 °C for 15 min. Cells were washed with phosphate buffer saline (PBS) (BioloT, S.-Peterburg, Russia) and fluorescence was measured with a Fluoroskan Ascent plate reader (Thermo Labsystems, Helsinki, Finland) at λex = 485 nm and λem = 518 nm. All manipulations with fluorescent probes were carried out in a darkened room. Cell viability was expressed as the percent of control.
The cells (1 × 10^4 cells/well of a 96-well plate) were treated with studied compounds at concentrations of 1 and 10 µM for 1 h and then 500 µM of PQ (Sigma-Aldrich, St. Louis, MO, USA) was added to the neuroblastoma cells. Cells incubated without PQ and compounds and with PQ alone were used as positive and negative controls, respectively. The viability of cells was measured after 24 h using MTT and FDA methods. The results were presented as percent of positive control data.

[3] = test system: histamine release induced by anti-IgE; settings: cited from earlier work
[4] = test system: PQ-treated Neuro-2a cells; assay: Neurite outgrowth estimation in PQ-treated Neuro-2a cells; format: cell-based, mouse; settings: compound 10 µM 1 h, then PQ 500 µM 24 h
Protocol: Neurite outgrowth was studied as described by Li et al.. Neuro-2a cells were seeded in 6-well plates (1.6 × 10^5 cells/well) in DMEM medium containing 10% fetal bovine serum (Biolot, St. Peterburg, Russia) and 1% penicillin/streptomycin (Invitrogen, Carlsbad, CA, USA). The next day, this growth media was changed with serum-free DMEM media containing 1% penicillin/streptomycin, and cells were treated with studied compounds at a concentration of 10 µM for 1 h. After that, PQ (500 µM) was added and cells were incubated during 24 h. Cells incubated without PQ and compounds and with PQ alone were used as positive and negative controls, respectively.
For each well, approximately 10 images were acquired randomly by scanning the wells from left to right and top to bottom using the AxioImager A1 microscope (CarlZeiss, Oberkochen, Germany). A total of ten random fields (near 350 cells in each) for each experimental group were scored for neurite outgrowth. The number of neurite-bearing cells and lengths of the individual neurites for each cell were measured using the AxioVision 4.7.1 software (CarlZeiss, Oberkochen, Germany). Length was defined as the straight-line distance from the tip of the neurite to the junction between the cell body and neurite base. In the case of branched neurites, the length of the longest branch was measured from the tip of the neurite to the cell body. In each experimental group, the average length of neurites was calculated, as well as the average number of neurites per one cell.

CC(C)=CCC[C@@H](C)[C@H]1CC[C@@]2(C(=O)O)C3=C(CC[C@]12C)[C@@]1(C)CCC(=O)C(C)(C)[C@@H]1CC3 [Compound 4, penasterone]
decrease of fluorescence of PI-straining cells [1]: 17% | effect on PQ-treated cell viability (FDA assay) [2]: did not show any effect | inhibition of histamine release induced by anti-IgE [3]: inhibitors of histamine release | increase in the average number of neurites per cell [4]: 27% | increase of neurites-bearing cell amount compared to PQ-treated control [4]: 134%
